This is an account of results in patent US6897287B1, “Ro/SSA peptide reagents for diagnosis of autoantibodies” (Oklahoma Medical Research Foundation, priority 1990, dated 2005).

“Also recorded” adds a separate entry of the source.

The subject of assay [1] is anti-Sm and anti-nRNP precipitin sera (IgG). In words: Solid phase antipeptide assay of Sm B/B' and related peptides with Sm, nRNP precipitin positive sera. Conditions: sera 1/100, Sm and nRNP precipitin positive SLE patients. The assay is classed as binding, human. On the procedure:
Sera. Human sera form patients who satisfied the classification criteria of the American Rheumatism Association for SLE or normal age-matched, sex-matched controls were used in this study. Fifteen sera from lupus patients were tested. Ten of these sera tested contained antibodies that formed strong precipitin lines with both Sm and nRNP, three formed precipitin lines with only nRNP, one formed a precipitin line with Ro/SSA and La/SSB, and one formed a precipitin line with only Ro/SSA. All of these serologic findings were confirmed by appropriate molecular weight bands for the reported antigen being bound in immunoblot by the respective sera.
Solid-phase noncleavable peptide synthesis. The published sequence of Sm B/B′ was used to construct all the possible overlapping octapeptides. The amino acids used for peptide synthesis had Fmoc protected primary amino groups and t-butyl (or other appropriate group) protected side chains. Overlapping octapeptides were simultaneously synthesized at the rounded ends of radiation derivatized polyethylene pins that were arranged in the format of a 96 well microliter plate (Cambridge Research Biochemicals. Cambridge, UK and Coselco Mimotopes Pty Ltd. Victoria, Australia) The active esters of Fmoc, t-butyl amino acid solutions (30 mM) were solubilized in DMF that had […] added to a final concentration of 30 mM and dispensed into the wells of a microliter plate. Each amino acid was added as determined by the 240 amino acids of the Raji Sm B/B′ sequence. After 18 h of incubation, the pins were washed in DMF for 5 min. four times at 2 min each in methanol, and once again in DMF for 5 min. The Fmoc protecting groups were then removed from the newly added amino acid by a 20% piperidine/DMF bath for 30 min. These steps were repeated until all eight amino acids were added. After the final amino acid, the amino terminal groups of each peptide was acetylated by incubating the pins in a 5:2:1 (v/v/v) mixture of DMF:acetic anhydride: triethylamine for 90 min at room temperature. After this step the pins were again washed in DMF for 2 min, four times at 2 min each in methanol, and then air-dried for 10 min. Finally, side chain amino protecting groups were removed by […] (v/w/v) of trifluoracetic acid:phenol:ethanedithiol. Wash steps included 2 min in methylene chloride, two times at 5 min each in 5% […]/methylene chloride, and a final methylene chloride wash for 5 min. After drying for 10 min., pins were placed in distilled water for 2 min., transferred to a methanol bath for 18 h. and dried under vacuum for 18 h. This procedure was repeated to synthesize another set of the carboxyl-terminal 36 octapeptides to allow substantiation of the previous data. In addition other octapeptides, including the amino acid changes seen in the vanDam/Ohosone Proc. Natl. Acad. Sci. USA 86:4249 (1989) sequences, were also synthesized. Selected substitution and deletion sequences, along with similar sequences from other proteins, were also constructed. Control pins composed of amino acids in a random sequence were prepared that were not present in any of the Sm or nRNP antigen sequences. In addition, positive control pins were synthesized from a known reactive sequence of the La/SSB peptide.
Solid phase antipeptide assay. Wash steps and incubations were carried out in sealed plastic containers. Other assay steps were performed by lowering the pins into microliter plate wells. First, pins were blocked with 3% low-fat milk in PBS for 1 h at room temperature. Pins were then incubated in 1/100 dilutions of sera in 3% milk/PBS with 0.05% TWEEN® (surfactant) overnight at 4° C. in humidified sealed containers. The pin blocks were then washed four times with PBS with 0.05% TWEEN® (surfactant) for 10 min each with vigorous agitation. […]

The test system of assay [2] is sera that contain an anti-Sm precipitin in the absence of an anti-nRNP precipitin. In words: Solid phase antipeptide assay with sera having anti-Sm precipitin alone. The assay is classed as binding, human. Conditions: anti-Sm precipitin without anti-nRNP precipitin. On the procedure: Solid phase antipeptide assay. Wash steps and incubations were carried out in sealed plastic containers. Other assay steps were performed by lowering the pins into microliter plate wells. First, pins were blocked with 3% low-fat milk in PBS for 1 h at room temperature. Pins were then incubated in 1/100 dilutions of sera in 3% milk/PBS with 0.05% TWEEN® (surfactant) overnight at 4° C. in humidified sealed containers. The pin blocks were then washed four times with PBS with 0.05% TWEEN® (surfactant) for 10 min each with vigorous agitation. Next, each pin was incubated with anti-human gamma-chain specific IgG raised in a goat, affinity purified and conjugated to alkaline phosphatase (Jackson Immunoresearch Laboratories, West Grove, Pa.) at a {fraction (1/10,000)} dilution. Paranitrophenyl phosphate disodium was used as a substrate for alkaline phosphatase and plates were read at 405 nm with a MICROELISA Reader (Dynatech, Alexandria, Va.). Results for each plate were then standardized by comparison with positive control pins. The same control pins were used for all plates and were allowed to develop to a specific OD with a known concentration of a standard control sera.
All antigenic sites determined in this study require a positively charged amino acid. The size of these sites varies from two nonconsecutive basic amino acids to an entire octapeptide. […]

Assay [3] deals with KSm 5 monoclonal autoantibody. In words: Binding of monoclonal antibody KSm 5 to Sm B/B' octapeptides. The arrangement: species or system MRL lpr/lpr mouse. To be noted: hybridoma supernatant. From the text:
Autoantibodies binding the Sm B and B′ peptides (B/B′) are commonly associated with systemic lupus erythernatosus in man and in MRL lpr/lpr mice. KSm 3 and KSm 5 were derived from an unmanipulated MRL lpr/lpr mouse using hybridoma monoclonal antibody technology. Supernatants containing KSm 3 and KSm 5 monoclonal antibodies were collected from cloned murine hybridoma cell lines in RPMI 1640 with 10% fetal bovine serum, glutamine, penicillin and streptomycin. These monoclonal autoantibodies are both of the IgG2a subclass. The linear antigenic regions of these two anti-Sm B/B′ murine monoclonal autoantibodies have been mapped using overlapping octapeptides. Unique epitopes are identified by each monoclonal. Monoclonal antibody KSm 5 recognizes the peptide, PPPGMRPP (amino acids 4-11 of SEQ ID NO:14), which is repeated three times in the Sm B polypeptide. […] Both of these regions of Sm B/B′ are major areas of antigericity for human anti-Sm autoantibodies. […] When the arginine in the sixth position PPPGMRPP (amino acids 4-11 of SEQ ID NO:14) is substituted KSm 5 binding is found in an unexpected subset of octapeptides. […] In contrast, binding of KSm 3 to PPPGIRPP (SEQ ID NO:122) is abolished when the sixth position arginine is substituted by any other amino acid. These two murine autoantibodies bind distinct linear epitopes of Sm B/B′ which are also bound by human anti-Sm B/B′ autoantibodies. […]

On to PPPGMRPP (listed as Homo sapiens), for which the “antigenicity / reactivity in words” value in assay [1] is on record as “especially antigenic; also recorded: consistently the most immunoreactive; also recorded: similarly antigenic in each; also recorded: major linear antigenic epitope”. The binding in words entry in assay [2] is “does not appear to be bound”. Also, in assay [3], the “binding by KSm 5 in words” value is recorded as “recognizes”.
